Results published in patent publication US20250204535A1, “Rodenticide” (priority 2022, published 2025).
Where no end group is shown, it is not given here.

Assays:
Type in all cases: cell-based
[1] = test system: Human IPSC-derived cardiomyocytes; assay: Screening synthetic peptides for alterations to human IPSC-derived cardiomyocyte beat rates; settings: 2 h; dose not stated in the sentence (no increase at 0.1, 1 and 10 μg/ml)
Experimental: The baseline beat rate of neonatal rat and human IPSC-derived cardiomyocytes to be treated with the three synthetic fractions were determined by video microscopy of each well in triplicate using a microscope camera. Average beats/min were calculated from the triplicate readings of three separate wells (n=9). Aliquots of each peptide were taken to treat neonatal rat cardiomyocyte cells at doses of 100, 10, 1 and 0.1 μg/ml. Cells were returned to a humidified incubator at 37° C., 5% CO2 for 2 h. After 2 h the beat rate of the treated cardiomyocyte cells was reassessed using the same method used to obtain the pre-dosing beat data. This process was repeated 24 h after the addition of the synthetic peptides.

[2] = test system: neonatal rat cardiac fibroblast cells; assay: Screening purified venom fractions for rat cardiac fibroblast toxicity (resazurin); settings: neonatal rat cardiac fibroblasts
Experimental: Hearts were collected from euthanised 1-2-day old neonatal rat pups and transferred into filter sterilised ice-cold Hanks balanced salt solution (HBSS) containing 2% Pen-strep. Hearts were washed in the HBSS, any non-heart tissue removed and then cut into 1-3 mm pieces and placed in 40 ml filter sterilised, ice cold 0.1% trypsin/HBSS. The heart pieces in trypsin were place in a large ice bucket and incubated overnight at 4° C. on a rocker with gentle agitation to allow the tissue to digest.
The following day, all trypsin was aspirated from the tissue and the tissue transferred evenly into 2 ml Eppendorf tubes. The tissue was then digested further using a 37° C. 1 mg/ml collagenase/HBSS (filter sterilised) solution. For each collagenase digestion, 2 ml of enzyme buffer was added to all Eppendorf tubes and the tubes incubated in a 37° C. heating block for 2 mins with 400 rpm agitation. The supernatant from the first two digestions was discarded. After each of the following digestion steps, the tissue was gently triturated using a pipette to release cells. Once trituration was complete the supernatant was retained, added to a tube containing 10 ml cell culture media and stored on ice.
All cell containing supernatants were filtered through a 250 μm cell strainer to remove any potentially undigested tissue and myocytes separated from cardiac fibroblast by spinning the supernatant at 1800 g for 45 mins through a Percoll gradient. […]
Neonatal rat cardiomyocytes and cardiac fibroblasts were treated with purified venom fractions suspected of being cardiotoxins at doses of 12.5, 7.5, 6 μg/ml, with rat cardiomyocytes being treated at additional concentrations of 3.5, 2.5, 1 and 0.5 μg/ml for 2 hs in a humidified incubator at 37° C., 5% CO2. […] The change in fluorescence of the resazurin dye was monitored over a 5 h timeframe using a BMG Fluostar plate reader. Percent inhibition of both cell types in response to each fraction at each dose were calculated and plotted graphically.

[3] = test system: Neonatal rat cardiomyocytes; assay: Screening purified venom fractions for alterations to cardiomyocyte beat rates; settings: for Highest Achieved Fold Increases in Beat Rate: 1 h; for fold increases to beat rate: dose of 6 μg/ml
Experimental: Neonatal rat cardiomyocytes were isolated as via standard protocol and seeded at a density of 100,000 cells/96 well. Once myocyte cultures were beating spontaneously in uniform sheets, they were videoed well-by-well using a microscope camera to determine pre-dose beat rates/min. […] Cells were incubated in each fraction in a humidified incubator at 37° C., 5% CO2 for 1 h. After 1 h videos of the cells were re-recorded to obtain the post-dosing beat rate/minute. Fold changes in beat frequency were calculated for each dosed well pair.

[4] = test system: Human IPSC-derived cardiomyocytes; assay: Screening synthetic peptides for human IPSC-derived cardiomyocyte toxicity (resazurin, 24 h); settings: 10 μg/ml, toxicity control
Experimental: (§1) Human IPSC-derived cardiomyocytes were purchased from Axol Biosciences and cultured as via their standard methodology. Briefly, cells were recovered from liquid nitrogen storage when required and the cells transferred dropwise into 10 ml of pre-warmed (37° C.) plating media (cardiomyocyte maintenance media+10% FCS+10 μM ROCK inhibitor). Cells were centrifuged at 200×g for 5 mins at room temperature. The supernatant was aspirated from the cell pellet and the cell pellet gently resuspended in 1 ml plating media. Cells were counted using a haemocytometer and trypan blue staining. Cells were plated at a seeding density of 10-20,000 cells/well in fibronectin pre-coated 384 well plates. Cells were incubated at 37° C., 5% CO2 in a humidified incubator overnight before the plating media was removed the following day and replace with fresh maintenance media (No FCS, no ROCK inhibitor). Partial media changes were performed every 2-days until cells formed a single continuous sheet of spontaneously beating cardiomyocytes (7-10 day in culture).
(§2) Rat neonatal cardiomyocytes, Embryonic chick cardiomyocytes, human IPSC-derived cardiomyocytes and rat cardiac fibroblast were cultured. […] After 24 h Resazurin dye was added to each well at a final concentration of 160 μM and the change in fluorescence of the dye monitored and recorded over a 24 h time period.

[5] = test system: rat neonatal cardiomyocyte cells; settings: 37, 60, 80, 100° C.; 6 μg/ml; rat cardiomyocytes; FIG. 4
Experimental: Thermal stability of the six lead fractions was investigated. Aliquots of each fraction were heated in a heat block to 37° C. (unheated), 60° C., 80° C. and 100° C. before being used to treat rat neonatal cardiomyocyte cells at a dose of 6 μg/ml. Cardiomyocyte toxicity was assessed after 24 hrs of dosing at each temperature against a similar aliquot of each fraction that had been unheated before dosing. After 24 h, 160 μM Resazurin dye was added to all cells and the change in cardiomyocyte cell viability/metabolism monitored every hour up to 5 h post dye addition. An additional measurement was recorded 24 hs after the dye had been added.

[6] = test system: Embryonic chick cardiomyocytes; assay: Screening synthetic peptides for embryonic chick cardiomyocyte toxicity (resazurin, 24 h); settings: 10 μg/ml, toxicity control
Experimental: Hearts were collected from euthanised 12-13 day old embryonic chicks and transferred into filter sterilized ice-cold hanks balanced salt solution (HBSS) containing 2% Pen-strep. Hearts were washed in the HBSS to remove blood, any non-heart tissue removed and then cut into 1-3 mm pieces and placed in 40 ml filter sterilized, ice cold 0.05% trypsin/HBSS. The heart pieces in trypsin were place in a large ice bucket and incubated for 1 h on a rocker with gentle agitation to allow the tissue to digest.
All trypsin was aspirated from the tissue and discarded, and the tissue transferred evenly into 2 ml Eppendorf tubes. The tissue was then digested further using a 1 mg/ml Collagenase II/0.1% Trypsin/HBSS (filter sterilized) solution. For each digestion, 2 ml of enzyme buffer was added to all Eppendorf tubes and the tubes incubated in a 37° C. heating block for 3 mins with 400 rpm agitation. The supernatant from the first two digestions was discarded. After each of the following digestion steps, the tissue was gently triturated using a Pasteur pipette to release cells. […]
as §2

[7] = test system: Human IPSC-derived cardiomyocytes; assay: Six lead fractions: toxicity to human IPSC-derived cardiomyocytes (resazurin); settings: 3.5 μg/ml
Experimental: as §1
Once beating spontaneously, cells were treated with the six lead fractions diluted in maintenance media to final working concentrations of 7.5, 6, 3.5, 2.5 and 1 μg/ml. 30 μl of each fraction dilution was added to triplicate wells of cells and incubated for 2 h at 37° C., 5% CO2 in a humidified incubator. After 2 h, resazurin dye at a final working concentration of 160 μM were added to all wells and the change in fluorescence of the plate monitored over a 5 h timeframe using a BMG Labtech Fluostar plate reader. Percent toxicity was calculated from triplicate wells at each dose and plotted graphically.
Human IPSC derived cardiomyocytes were dosed in triplicate with a serial dilution of each of the six venom fractions (7.5, 6, 3.5, 2.5 and 1 μg/ml) for 2 hs at 37° C., 5% CO2 before resazurin dye was added and the change in colour and fluorescence monitored for the following 5 hrs. Percentage toxicity was calculated for each fraction at all doses and plotted graphically (FIG. 3).

Substance: LKCNKLIPLAYKT [Synthetic peptide 2]
- increase to the beat rate of human cardiomyocytes over pre-dosing beat rate [1]: 1.5 fold

Substance: N.nig_I19_R4 (LKCNKLIPIAYKTCPEGKNLCYKMMLASKKMVPVKRGCIDVCPKDSALVKYVCCSTDRCN)
- doses showing cardiac fibroblast toxicity [2]: 12.5 µg/mL
- Highest Achieved Fold Increases in Beat Rate ([3]; Dose 1 μg/ml): 6.25 fold
- fold increases to beat rate [3]: greater than 5.5 fold
- toxicity against human IPSC-derived cardiomyocytes [4]: ≈ 90%
- thermal stability (change in cytotoxic activity after heating) [5]: no significant changes in the activity
- toxicity against embryonic chick cardiomyocytes [6]: ≈ 90%

Substance: N.nka_I18_R4 (LKCNKLIPLAYKTCPAGKDLCYKMYMVSDKTVPVKRGCIDVCPKNSLLVKYECCNTDRCN)
- toxicity in human IPSC-derived cells compared to rodent cardiomyocytes [7]: reduction in toxicity
- Highest Achieved Fold Increases in Beat Rate ([3]; Dose 6 μg/ml): 7.00 fold
- fold increases to beat rate [3]: greater than 7 fold
- toxicity against human IPSC-derived cardiomyocytes [4]: ≈ 90%
- thermal stability (change in cytotoxic activity after heating) [5]: no significant changes in the activity
- toxicity against embryonic chick cardiomyocytes [6]: ≈ 90%
